Each block holds one compound with its values, some of them ahead of it. Where a SMILES comes first, the peptide text is derived from it. [ ]: non-standard residue; d: D form. The star is where a group is joined. Sta = CC(C)C[C@H](N)[C@@H](O)CC(=O)O; Isovaleryl = CC(C)CC(=O)*
How the values were obtained:
human renin = molecular target: T1, human renin (Homo sapiens, UniProt P00797); experiment: Human Renin Inhibition in vitro (angiotensin I by radioimmunoassay); type: biochemical; conditions: pH 7.4, 37° C., two hours, human plasma
T1 construct: purchased National Institute for Biological Standards, London
T1 sequence (P00797 67-406): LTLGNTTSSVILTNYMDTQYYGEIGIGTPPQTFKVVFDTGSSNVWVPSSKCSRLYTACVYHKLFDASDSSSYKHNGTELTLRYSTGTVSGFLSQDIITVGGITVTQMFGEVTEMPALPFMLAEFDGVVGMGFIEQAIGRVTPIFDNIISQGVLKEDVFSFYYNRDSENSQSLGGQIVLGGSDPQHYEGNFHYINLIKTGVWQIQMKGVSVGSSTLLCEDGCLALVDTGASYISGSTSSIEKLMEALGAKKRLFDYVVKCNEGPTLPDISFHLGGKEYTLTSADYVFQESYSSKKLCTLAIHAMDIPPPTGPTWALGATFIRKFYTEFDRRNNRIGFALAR
Experimental: Compounds of Formula I were evaluated as inhibitors of human renin in an in vitro assay, as follows: This human renin inhibition test has been previously described in detail [Papaioannou et al., Clinical and Experimental Hypertension, A7(9), 1243-1257 (1985)]. Human renin was obtained from the National Institute for Biological Standards, London. An incubation mixture was prepared containing the following components: in a total volume of 0.25 mL: 100 mM Tris-acetate buffer at pH 7.4, 25×10^-6 Goldblatt units of renin, 0.05 mL of plasma from human volunteers taking oral contraceptives, 6.0 mM Na-EDTA, 2.4 mM phenylmethyl sulfonyl fluoride, 1.5 mM 8-hydroxyquinoline, 0.4 mg/mL bovine serum albumin (BSA), and 0.024 mg/mL neomycin sulfate. This mixture was incubated for two hours at 37° C. in the presence or absence of renin inhibitors. The produced angiotensin I was determined by radioimmunoassay (New England Nuclear kit). Test compounds to be assayed were dissolved in DMSO and diluted with 100 mM Tris-acetate buffer at pH 7.4 containing 0.5% BSA to the appropriate concentration. The final concentration of organic solvent in the reaction mixture was less than 1%. Control incubations at 37° C. were used to correct for effects of organic solvent on renin activity.

renin = conditions: Umezawa et al, J. Antibiot. 1970; cited from earlier work
pepsin = conditions: Umezawa et al, J. Antibiot. 1970; cited from earlier work
hog renin = conditions: after injection of hog renin into nephrectomized rats; Gross et al, Science 1971; cited from earlier work
cathepsin D = conditions: Umezawa et al, J. Antibiot. 1970; cited from earlier work

IC50 (human renin): 10 nM
Compound: CC(C)C[C@H](O)[C@H](O)[C@H](CC1CCCCC1)NC(=O)C(C)CNC(=O)C(Cc1ccccc1)CS(=O)(=O)C(C)(C)C (stereo partly drawn) [Example 1, N-[3-[[1S,1R*-(cyclohexylmethyl)-2S*,3R*-5-methylhexyl]amino]-2S*-methyl-3-oxopropyl]-α-[[(1,1-dimethylethyl)sulfonyl]methyl]benzenepropanamide]

inhibition at 0.01 µM (human renin; @ 10 nM): 30%
Compound: CC(C)C[C@H](O)[C@H](O)[C@H](CC1CCCCC1)NC(=O)C(C)CNC(=O)C(CSC(C)(C)C)Cc1ccccc1 (stereo partly drawn) [Example 2, N-[3-[[1S,1R*-(cyclohexylmethyl)-2S*,3R*-dihydroxy-5-methylhexyl]amino]-2S*-methyl-2-3-oxopropyl]-α-[[(1,1-dimethylethyl)thio]methyl]benzenepropanamide]

Compound: CC(C)CC(=O)N[C@H](C(=O)N[C@H](C(=O)N[C@@H](CC(C)C)[C@@H](O)CC(=O)N[C@@H](C)C(=O)N[C@@H](CC(C)C)[C@@H](O)CC(=O)O)C(C)C)C(C)C [pepstatin] (Isovaleryl-VV[Sta]A[Sta]-OH)
inhibitor of renin (renin): inhibitor
inhibitor of pepsin (pepsin): inhibitor
blood pressure in vivo (hog renin): reduce blood pressure
inhibitor of cathepsin D (cathepsin D): inhibitor

Source: US5312838A, “β-alanineamide aryl/alkylsulfide/sulfonyl-terminated amino-diol compounds for treatment of hypertension” (G. D. Searle & Co., priority 1992, dated 1994)
